Results from patent US12595266B2, “Pesticidally active heterocyclic derivatives with sulfur containing substituents” (SYNGENTA CROP PROTECTION AG, priority 2020, dated 2026).

Assays:
Type in all cases: in vivo
[1] = tested on: Bemisia tabaci (Cotton White Fly); assay: Activity against Bemisia tabaci (cotton white fly), feeding/contact activity; conditions: foliar, 144 h, application rate of 200 ppm, cotton leaf discs sprayed, adult white flies, 6 days after incubation
Description: Example B1: Activity Against Bemisia tabaci (Cotton White Fly) Feeding/Contact Activity
Cotton leaf discs were placed on agar in 24-well microtiter plates and sprayed with aqueous test solutions prepared from 10′000 ppm DMSO stock solutions. After drying the leaf discs were infested with adult white flies. The samples were checked for mortality 6 days after incubation.

[2] = tested on: Chilo suppressalis (Striped Rice Stemborer); assay: Activity against Chilo suppressalis (striped rice stemborer); conditions: 144 h, application rate of 200 ppm, artificial diet, L2 larvae, 6 days after infestation, read-out: control (at least one of mortality, anti-feedant effect, growth inhibition)
Description: Example B2: Activity Against Chilo suppressalis (Striped Rice Stemborer)
24-well microtiter plates with artificial diet were treated with aqueous test solutions prepared from 10′000 ppm DMSO stock solutions by pipetting. After drying, the plates were infested with L2 larvae (6-8 per well). The samples were assessed for mortality, anti-feeding effect, and growth inhibition in comparison to untreated samples 6 days after infestation. Control of Chilo suppressalis by a test sample is given when at least one of the categories mortality, anti-feedant effect, and growth inhibition is higher than the untreated sample.

[3] = tested on: Diabrotica balteata (Corn Root Worm); assay: Activity against Diabrotica balteata (corn root worm); conditions: 96 h, application rate of 200 ppm, maize sprouts sprayed, L2 larvae, 4 days after infestation, read-out: effect in at least one of the two categories (mortality or growth inhibition)
Description: Example B3: Activity Against Diabrotica balteata (Corn Root Worm)
Maize sprouts placed onto an agar layer in 24-well microtiter plates were treated with aqueous test solutions prepared from 10′000 ppm DMSO stock solutions by spraying. After drying, the plates were infested with L2 larvae (6 to 10 per well). The samples were assessed for mortality and growth inhibition in comparison to untreated samples 4 days after infestation.

[4] = tested on: Euschistus heros (Neotropical Brown Stink Bug); assay: Activity against Euschistus heros (neotropical brown stink bug); conditions: 120 h, application rate of 200 ppm, soybean leaves sprayed, N2 nymphs, 5 days after infestation, read-out: effect in at least one of the two categories (mortality or growth inhibition)
Description: Example B4: Activity Against Euschistus heros (Neotropical Brown Stink Bug)
Soybean leaves on agar in 24-well microtiter plates were sprayed with aqueous test solutions prepared from 10′000 ppm DMSO stock solutions. After drying the leaves were infested with N2 nymphs. The samples were assessed for mortality and growth inhibition in comparison to untreated samples 5 days after infestation.

[5] = tested on: Myzus persicae (Green Peach Aphid); assay: Activity against Myzus persicae (green peach aphid), feeding/contact activity; conditions: foliar, 144 h, application rate of 200 ppm, sunflower leaf discs sprayed, aphid population of mixed ages, 6 days after infestation
Description: Example B6: Activity Against Myzus persicae (Green Peach Aphid) Feeding/Contact Activity
Sunflower leaf discs were placed onto agar in a 24-well microtiter plate and sprayed with aqueous test solutions prepared from 10′000 ppm DMSO stock solutions. After drying, the leaf discs were infested with an aphid population of mixed ages. The samples were assessed for mortality 6 days after infestation.

[6] = tested on: Plutella xylostella (Diamond Back Moth); assay: Activity against Plutella xylostella (diamond back moth); conditions: 192 h, application rate of 200 ppm, artificial diet, Plutella eggs, 8 days after infestation, read-out: effect in at least one of the two categories (mortality or growth inhibition)
Description: Example B7: Activity Against Plutella xylostella (Diamond Back Moth)
24-well microtiter plates with artificial diet were treated with aqueous test solutions prepared from 10′000 ppm DMSO stock solutions by pipetting. After drying, Plutella eggs were pipetted through a plastic stencil onto a gel blotting paper and the plate was closed with it. The samples were assessed for mortality and growth inhibition in comparison to untreated samples 8 days after infestation.

[7] = tested on: Spodoptera littoralis (Egyptian Cotton Leaf Worm); assay: Activity against Spodoptera littoralis (Egyptian cotton leaf worm); conditions: foliar, 72 h, application rate of 200 ppm, cotton leaf discs sprayed, L1 larvae, 3 days after infestation, read-out: control (at least one of mortality, anti-feedant effect, growth inhibition)
Description: Example B8: Activity Against Spodoptera littoralis (Egyptian Cotton Leaf Worm)
Cotton leaf discs were placed onto agar in 24-well microtiter plates and sprayed with aqueous test solutions prepared from 10′000 ppm DMSO stock solutions. After drying the leaf discs were infested with five L1 larvae. The samples were assessed for mortality, anti-feeding effect, and growth inhibition in comparison to untreated samples 3 days after infestation. Control of Spodoptera littoralis by a test sample is given when at least one of the categories mortality, anti-feedant effect, and growth inhibition is higher than the untreated sample.

[8] = tested on: Carpocapsa (Cydia) Pomonella (Codling Moth); assay: Activity against Carpocapsa (Cydia) pomonella (codling moth), larvicide, feeding/contact; conditions: 336 h, application rate of 12.5 ppm, paraffin-coated diet cubes sprayed, L1 larvae, 14 days after infestation, 26-27° C.
Description: Example B10: Activity Against Carpocapsa (Cydia) Pomonella (Codling Moth) Larvicide, Feeding/Contact
Diet cubes coated with paraffin were sprayed with diluted test solutions in an application chamber. After drying off the treated cubes (10 replicates) were infested with 1 L1 larvae. Samples were incubated at 26-27° C. and checked 14 days after infestation for mortality and growth inhibition.

[9] = tested on: Frankliniella occidentalis (Western Flower Thrips); assay: Activity against Frankliniella occidentalis (western flower thrips), feeding/contact activity; conditions: foliar, 168 h, application rate of 200 ppm, sunflower leaf discs sprayed, population of mixed ages, 7 days after infestation
Description: Example B5: Activity Against Frankliniella occidentalis (Western Flower Thrips) Feeding/Contact Activity
Sunflower leaf discs were placed on agar in 24-well microtiter plates and sprayed with aqueous test solutions prepared from […] stock solutions. After drying the leaf discs were infested with a Frankliniella population of mixed ages. The samples were assessed for mortality 7 days after infestation.

CCS(=O)(=O)c1cc(C2(C#N)CC2)cnc1N1Cc2cc3c(cc2C1=O)OC(F)(F)O3 [Compound P1, 1-[6-(2,2-difluoro-7-oxo-5H-[1,3]dioxolo[4,5-f]isoindol-6-yl)-5-ethylsulfonyl-3-pyridyl]cyclopropanecarbonitrile]
≥ 80%: mortality at 200 ppm [1] | percent control (mortality, anti-feedant effect or growth inhibition) at 200 ppm [2] | percent effect (mortality or growth inhibition) at 200 ppm [3] | percent effect (mortality or growth inhibition) at 200 ppm [4] | mortality at 200 ppm [5] | percent effect (mortality or growth inhibition) at 200 ppm [6] | percent control (mortality, anti-feedant effect or growth inhibition) at 200 ppm [7] | mortality at 12.5 ppm [8]

CCS(=O)(=O)c1c(N2Cc3cc4c(cc3C2=O)OC(F)(F)O4)nc(-c2ccc(C3(C#N)CC3)cc2)n1C [Compound P2, 1-[4-[4-(2,2-difluoro-7-oxo-5H-[1,3]dioxolo[4,5-f]isoindol-6-yl)-5-ethylsulfonyl-1-methyl-imidazol-2-yl]phenyl]cyclopropanecarbonitrile]
≥ 80%: percent control (mortality, anti-feedant effect or growth inhibition) at 200 ppm [2] | percent effect (mortality or growth inhibition) at 200 ppm [3] | percent effect (mortality or growth inhibition) at 200 ppm [4] | mortality at 200 ppm [9] | mortality at 200 ppm [5] | percent effect (mortality or growth inhibition) at 200 ppm [6] | percent control (mortality, anti-feedant effect or growth inhibition) at 200 ppm [7] | mortality at 12.5 ppm [8]

CCS(=O)(=O)c1cc(OC(C)(C)C#N)cnc1N1Cc2cc3c(cc2C1=O)OC(F)(F)O3 [Compound P25, 2-[[6-(2,2-difluoro-7-oxo-5H-[1,3]dioxolo[4,5-f]isoindol-6-yl)-5-ethylsulfonyl-3-pyridyl]oxy]-2-methyl-propanenitrile]
≥ 80%: mortality at 200 ppm [1] | percent control (mortality, anti-feedant effect or growth inhibition) at 200 ppm [2] | percent effect (mortality or growth inhibition) at 200 ppm [3] | percent effect (mortality or growth inhibition) at 200 ppm [4] | mortality at 200 ppm [5] | percent effect (mortality or growth inhibition) at 200 ppm [6] | percent control (mortality, anti-feedant effect or growth inhibition) at 200 ppm [7] | mortality at 12.5 ppm [8]
